The subject of the first experiment is OVCAR4. The experiment can be described thus: drug sensitivity score (DSS) from 5-point dose-response viability curve (DSS (area-under-curve based score)); higher = more sensitive (stronger growth inhibition or killing); extreme values may be limits of the assay. To be noted: exposure time: 72 h; concentration range: 5 concentrations over 10,000-fold range. The procedure, abridged: (§1)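 Drug sensitivity scores were calculated in Breeze software for each cell line and drug pair; higher scores indicate more sensitivity. A score of zero indicates no response. The underlying assay used 384-well plates: drugs were placed by an Echo 550 acoustic dispenser at five concentrations spanning a 10,000-fold range, 1,500 ovarian cancer or normal ovarian cells were added per well, and cells were kept 3 days at 37°C, 5% CO2. Viability was then measured with CellTiter-Glo luminescence on a PHERAstar FS.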
On to `Cc1cnc(-c2ccccc2C(C)C)nc1NCc1ccc(-n2ccnn2)cc1` [ML323], for which the drug sensitivity score was found to be 1.5.
For `Cc1ccc(C(=O)Nc2cccc(C(F)(F)F)c2)cc1Nc1nc(-c2cccnc2)nc2c1cnn2C` [NVP-BHG712], the drug sensitivity score came out at 1.4.
The compound `COc1cc2c(cc1OCCCN1CCCC1)N=C(N)C21CCC1` [A-366] registered a drug sensitivity score of 0.1.
With `CS(=O)(=O)c1ccc(C(=O)Nc2ccc(Cl)c(-c3ccccn3)c2)c(Cl)c1` [Vismodegib], the drug sensitivity score stood at 0.
In turn, `COc1cc2c(Oc3ccc4[nH]c(C)cc4c3F)ncnc2cc1OCCCN1CCCC1` [Cediranib] came in with a drug sensitivity score of 0.5.
The compound `CCNC(=O)c1noc(-c2cc(C(C)C)c(O)cc2O)c1-c1ccc(CN2CCOCC2)cc1` [Luminespib] displayed a drug sensitivity score of 9.8.
With `Cc1cnc(Nc2ccc(OCCN3CCCC3)cc2)nc1Nc1cccc(S(=O)(=O)NC(C)(C)C)c1` [Fedratinib], the drug sensitivity score came out at 5.2.
Take `CNC(=O)c1ccc(C)c(-n2c(C)cc(OCc3ccc(F)cc3F)c(Br)c2=O)c1`: the drug sensitivity score came to 0.
In turn, `Cc1nc(Nc2n[nH]c3c2CN(C(=O)N[C@H](CN(C)C)c2ccccc2)C3(C)C)c2sccc2n1` displayed a drug sensitivity score of 10.2.
In the case of `CCN(CC)Cc1ccc2cc(COC(=O)Nc3ccc(C(=O)NO)cc3)ccc2c1` [Givinostat], the drug sensitivity score worked out at 4.1.
As to `CC(C)(C)Cn1c(N)nc2ccc(-c3[nH]c(C(C)(C)C)nc3-c3ccc(F)cc3)nc21` [Ralimetinib], the drug sensitivity score came to 1.1.
For the compound `COc1cc2nccc(Oc3ccc(NC(=O)NC4CC4)c(Cl)c3)c2cc1C(N)=O` [Lenvatinib], the drug sensitivity score amounted to 0.6.
In turn, `S=c1[nH]cnc2nc[nH]c12` [Mercaptopurine] gave a drug sensitivity score of 12.3.
As for `CNc1nc(Nc2cn(C(C)(C)C#N)nc2C)ncc1C(F)(F)F` [GNE-0877], the drug sensitivity score stood at 0.
Still for that read-out and setting: as for `COc1cc2nccc(Oc3ccc(NC(=O)C4(C(=O)Nc5ccc(F)cc5)CC4)cc3)c2cc1OC` [Cabozantinib], the figure is 0; as for `CN1CC[C@H](c2c(O)cc(O)c3c(=O)cc(-c4ccccc4Cl)oc23)[C@H](O)C1` [Alvocidib], 13.3.
`O=C1NC(=O)[C@@H](c2cn3c4c(cccc24)CCC3)[C@@H]1c1c[nH]c2ccccc12` [Tivantinib] returned a drug sensitivity score of 1.6.
In turn, `C[C@@H](Nc1cc(F)cc(F)c1)c1cc(C(=O)N(C)C)cc2c(=O)cc(N3CCOCC3)oc12` [AZD-8186] had a drug sensitivity score of 3.1.
Regarding `O=C1Cc2cc(C(=O)NC3C[C@H]4CC[C@@H](C3)N4S(=O)(=O)CC3CCN(CCCC(F)(F)F)CC3)c(Cl)cc2N1` (stereo partly specified), the drug sensitivity score was determined as 0.
The compound `C/C(=C\c1csc(C)n1)[C@@H]1C[C@@H]2O[C@]2(C)CCC[C@H](C)[C@H](O)[C@@H](C)C(=O)C(C)(C)[C@@H](O)CC(=O)N1` [Ixabepilone] had a drug sensitivity score of 2.1.
Still for that read-out and setting: as for `COc1ccc(COc2cc3oc(=O)c4cc(C(C)O)ccc4c3cc2OC)cc1` (stereo unspecified) [Palomid-529], the figure is 0.6; as for `Nc1ncn([C@@H]2O[C@H](CO)[C@@H](O)[C@H]2O)c(=O)n1` [Azacitidine], 1.6; as for `Cc1nn(C)c(COc2ccc(N3CCN(S(=O)(=O)N(C)C)CC3)cc2)c1-c1cccc2c(CCCOc3cccc4ccccc34)c(C(=O)O)n(CCN3CCOCC3)c12`, 5.1.
Turning to `C=C1C[C@@H]2[C@H](CC[C@]3(C)C(=O)CC[C@@H]23)[C@@]2(C)C=CC(=O)C=C12` [Exemestane], the drug sensitivity score was 0.
Regarding `C[C@@H]1C=C2C(=O)O[C@@H]3CC[C@H](C1)[C@]23O` [Galiellalactone], the drug sensitivity score is 6.5.
Take `Cn1c(Nc2ccc(C(F)(F)F)cc2)nc2cc(Oc3ccnc(-c4ncc(C(F)(F)F)[nH]4)c3)ccc21` [NVP-RAF265]: the drug sensitivity score was determined as 0.3.
In the case of `Cn1ncc(Cl)c1-c1cc(C(=O)N[C@H](CN)Cc2ccc(F)c(F)c2)oc1Cl` [Uprosertib], the drug sensitivity score was determined as 0.
On the same count and under the same terms, as for `CC1=C2C[C@H]3[C@@H](CC[C@@H]4C[C@H](NS(C)(=O)=O)CC[C@@]43C)[C@@H]2CC[C@@]2(C1)O[C@@H]1C[C@H](C)CN[C@H]1[C@H]2C` [Saridegib], the figure is 0.
The compound `COc1cc2c(Oc3ccc(NC(=O)C4(C(=O)Nc5ccc(F)cc5)CC4)cc3F)ccnc2cc1OCCCN1CCOCC1` [Foretinib] had a drug sensitivity score of 3.2.
For `COCCOc1cnc2ccn([C@H](C)c3nnc4c(F)cc(-c5cnn(C)c5)cn34)c(=O)c2c1` [AMG-337], the drug sensitivity score turned out to be 0.
`Nc1ccccc1NC(=O)c1ccc(CNC(=O)OCc2cccnc2)cc1` [Entinostat] came in with a drug sensitivity score of 4.3.

In a further experiment the test system is JHOS2. The experiment is described as above. To be noted: exposure time: 72 h; concentration range: 5 concentrations over 10,000-fold range. In short, it runs like this:
as §1
`Cc1cnc(-c2ccccc2C(C)C)nc1NCc1ccc(-n2ccnn2)cc1` [ML323] came in with a drug sensitivity score of 0.
On the same count and under the same terms, the result for `Cc1ccc(C(=O)Nc2cccc(C(F)(F)F)c2)cc1Nc1nc(-c2cccnc2)nc2c1cnn2C` [NVP-BHG712] reads 2.1; that for `COc1cc2c(cc1OCCCN1CCCC1)N=C(N)C21CCC1` [A-366], 0; that for `CS(=O)(=O)c1ccc(C(=O)Nc2ccc(Cl)c(-c3ccccn3)c2)c(Cl)c1` [Vismodegib], 0.
The compound `COc1cc2c(Oc3ccc4[nH]c(C)cc4c3F)ncnc2cc1OCCCN1CCCC1` [Cediranib] had a drug sensitivity score of 0.
The same measure, in the same setting: as for `CCNC(=O)c1noc(-c2cc(C(C)C)c(O)cc2O)c1-c1ccc(CN2CCOCC2)cc1` [Luminespib], the figure is 18.8; as for `Cc1cnc(Nc2ccc(OCCN3CCCC3)cc2)nc1Nc1cccc(S(=O)(=O)NC(C)(C)C)c1` [Fedratinib], 5.3; as for `CNC(=O)c1ccc(C)c(-n2c(C)cc(OCc3ccc(F)cc3F)c(Br)c2=O)c1`, 0.
Same read-out and setting: as for `Cc1nc(Nc2n[nH]c3c2CN(C(=O)N[C@H](CN(C)C)c2ccccc2)C3(C)C)c2sccc2n1`, the figure is 10.6.
`CCN(CC)Cc1ccc2cc(COC(=O)Nc3ccc(C(=O)NO)cc3)ccc2c1` [Givinostat]: the drug sensitivity score is 5.3.
The same measure, in the same setting: as for `CC(C)(C)Cn1c(N)nc2ccc(-c3[nH]c(C(C)(C)C)nc3-c3ccc(F)cc3)nc21` [Ralimetinib], the figure is 1.8.
For `COc1cc2nccc(Oc3ccc(NC(=O)NC4CC4)c(Cl)c3)c2cc1C(N)=O` [Lenvatinib], the drug sensitivity score amounted to 0.1.
In the case of `S=c1[nH]cnc2nc[nH]c12` [Mercaptopurine], the drug sensitivity score amounted to 4.1.
Take `CNc1nc(Nc2cn(C(C)(C)C#N)nc2C)ncc1C(F)(F)F` [GNE-0877]: the drug sensitivity score was 0.
For `COc1cc2nccc(Oc3ccc(NC(=O)C4(C(=O)Nc5ccc(F)cc5)CC4)cc3)c2cc1OC` [Cabozantinib], the drug sensitivity score was found to be 1.
